In patent publication US11590116B2 (THERAVANCE BIOPHARMA R&D IP, LLC, priority 2019, dated 2023):

Experiments:
[1] = tested on: TGF-β-stimulated SMAD3 phosphorylation in BEAS-2B cells; test: Cellular ALK5 potency assay, inhibition of TGF-β stimulated pSMAD3 formation in BEAS-2B cells; type: cell-based; details: Homo sapiens; inhibition of TGF-β stimulated pSMAD3 formation, BEAS-2B cells; read-out: BEAS2B pIC50 (converted)
How it was run: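 pSMAD3 was quantified by AlphaLISA in BEAS-2B lysates after 10 ng/mL TGF-β (final) for 30 min. Before stimulation, cells received compound for 1 h at 37° C in supplemented HBSS. Values are pIC50, relative to TGF-β-stimulated cells without compound.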

[2] = biological target: T1, recombinant human ALK5 (TGF-βR1) protein (Homo sapiens, UniProt P36897); test: Biochemical ALK5 (TGF-βR1) assay to measure pKi (LANCE Ultra ULight kinase assay); details: apparent pKi from pIC50 by Cheng-Prusoff, read-out: ALK5 pKi (converted)
T1 construct: purchased Life Technologies PR9075A
T1 sequence (P36897 34-503): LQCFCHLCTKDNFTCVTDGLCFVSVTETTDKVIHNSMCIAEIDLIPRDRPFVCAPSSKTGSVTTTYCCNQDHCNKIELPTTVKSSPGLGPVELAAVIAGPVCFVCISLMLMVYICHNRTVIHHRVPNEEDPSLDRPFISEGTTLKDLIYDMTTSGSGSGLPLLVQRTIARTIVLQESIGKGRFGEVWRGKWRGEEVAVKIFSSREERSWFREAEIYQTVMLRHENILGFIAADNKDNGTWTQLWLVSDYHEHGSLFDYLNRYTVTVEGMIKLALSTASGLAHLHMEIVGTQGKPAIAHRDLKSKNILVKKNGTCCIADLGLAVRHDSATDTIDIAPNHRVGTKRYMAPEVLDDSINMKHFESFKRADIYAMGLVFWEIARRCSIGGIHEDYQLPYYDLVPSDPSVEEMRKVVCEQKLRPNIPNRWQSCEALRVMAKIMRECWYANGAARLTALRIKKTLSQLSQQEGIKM
How it was run: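 Compounds (10 μM to 25 pM) were preincubated 60 min at room temperature with enzyme, then reactions were started with ATP (125 μM stock, 5× final) and run 60 min at 37 °C. EDTA-containing Eu-anti-phospho-Topo IIα (Thr1342) antibody stopped the reaction; TR-FRET read at 665 nm. pIC50 from 4-parameter fit, converted to pKi via Cheng-Prusoff.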

Ki [2] [nM] | Compound | IC50 [1] [nM]
0.0398 to 0.316 | CNCCn1cc(-c2cnc3ccc(-c4c(-c5cccc(C)n5)nn5c4CNCC5)nc3c2)cn1 [Compound 64, N-methyl-2-[4-[6-[2-(6-methyl-2-pyridyl)-4,5,6,7-tetrahydropyrazolo[1,5-a]pyrazin-3-yl]-1,5-naphthyridin-3-yl]pyrazol-1-yl]ethanamine] | 200 to 1260
0.398 to 3.16 | Cc1cccc(-c2[nH]cnc2-c2ccc3ncc(C(=O)O[C@@H]4CCNC4)cc3c2)n1 [Compound 1149, [(3R)-pyrrolidin-3-yl] 6-[5-(6-methyl-2-pyridyl)-1H-imidazol-4-yl]quinoline-3-carboxylate] | 200 to 1260
< 0.0316 | Cc1cccc(-c2n[nH]cc2-c2ccc3ncc(C(=O)NCCN4CCOCC4)cc3n2)n1 [Compound 44, 6-[3-(6-methyl-2-pyridyl)-1H-pyrazol-4-yl]-N-(2-morpholinoethyl)-1,5-naphthyridine-3-carboxamide] | 25.1 to 158
0.398 to 3.16 | Cc1cccc(-c2n[nH]cc2-c2ccc3nccc(C(=O)OCCN4CCOCC4)c3n2)n1 [Compound 827, 2-morpholinoethyl 6-[3-(6-methyl-2-pyridyl)-1H-pyrazol-4-yl]-1,5-naphthyridine-4-carboxylate] | 25.1 to 158
0.0398 to 0.316 | Cc1cccc(-c2[nH]cnc2-c2ccc3ncc(N4CCNC(CC(=O)O)C4)cc3c2)n1 (centres unmarked) [Compound 500, 2-(4-(6-(5-(6-methylpyridin-2-yl)-1H-imidazol-4-yl)quinolin-3-yl)piperazin-2-yl)acetic acid] | 1580 to 10000
0.0398 to 0.316 | Cc1nc(-c2n[nH]cc2-c2ccc3ncc(-c4nnn5c4NCCC5)cc3n2)ccc1F [Compound 263, 2-[3-(5-fluoro-6-methyl-2-pyridyl)-1H-pyrazol-4-yl]-7-(4,5,6,7-tetrahydrotriazolo[1,5-a]pyrimidin-3-yl)-1,5-naphthyridine] | 25.1 to 158
0.398 to 3.16 | Cc1cccc(-c2nnn(Cc3ccccc3)c2-c2ccc3ncc(-c4c[nH]nc4C(F)(F)F)cc3n2)n1 [Compound 288, 2-[3-benzyl-5-(6-methyl-2-pyridyl)triazol-4-yl]-7-[3-(trifluoromethyl)-1H-pyrazol-4-yl]-1,5-naphthyridine] | 25.1 to 158
0.0398 to 0.316 | Cc1cccc(-c2[nH]cnc2-c2ccc3ncc(-c4cnc5c(c4)CNC5)cc3c2)n1 [Compound 443, 3-(6,7-dihydro-5H-pyrrolo[3,4-b]pyridin-3-yl)-6-[5-(6-methyl-2-pyridyl)-1H-imidazol-4-yl]quinoline] | 25.1 to 158
0.0398 to 0.316 | CNC1CCN(c2cnc3ccc(-c4c(-c5cccc(C)n5)nc5ccccn45)nc3c2)CC1 [Compound 501, N-methyl-1-[6-[2-(6-methyl-2-pyridyl)imidazo[1,2-a]pyridin-3-yl]-1,5-naphthyridin-3-yl]piperidin-4-amine] | 25.1 to 158
0.0398 to 0.316 | Cc1cccc(-c2n[nH]cc2-c2ccc3ncc(-c4cccc(F)c4)cc3n2)n1 [Compound 58, 7-(3-fluorophenyl)-2-[3-(6-methyl-2-pyridyl)-1H-pyrazol-4-yl]-1,5-naphthyridine] | 25.1 to 158
0.0398 to 0.316 | Cc1cccc(-c2[nH]cnc2-c2ccc3ncc(C(=O)OCCC4CCNC4)cc3c2)n1 (centres unmarked) [Compound 1153, 2-pyrrolidin-3-ylethyl 6-[5-(6-methyl-2-pyridyl)-1H-imidazol-4-yl]quinoline-3-carboxylate] | 25.1 to 158
0.0398 to 0.316 | Cc1cccc(-c2n[nH]cc2-c2ccc3ncc(N4CCCNCC4)cc3n2)n1 [Compound 349, 7-(1,4-diazepan-1-yl)-2-[3-(6-methyl-2-pyridyl)-1H-pyrazol-4-yl]-1,5-naphthyridine] | 25.1 to 158
0.0398 to 0.316 | Cc1cccc(-c2[nH]cnc2-c2ccc3ncc(-c4csc(C(=O)OC5CNC5)c4)cc3c2)n1 [Compound 752, azetidin-3-yl 4-[6-[5-(6-methyl-2-pyridyl)-1H-imidazol-4-yl]-3-quinolyl]thiophene-2-carboxylate] | 25.1 to 158
0.0398 to 0.316 | COC(=O)N1CCc2nnc(-c3cnc4ccc(-c5c[nH]nc5-c5ccc(F)c(C)n5)nc4c3)cc2C1 [Compound 303, methyl 3-[6-[3-(5-fluoro-6-methyl-2-pyridyl)-1H-pyrazol-4-yl]-1,5-naphthyridin-3-yl]-7,8-dihydro-5H-pyrido[4,3-c]pyridazine-6-carboxylate] | 25.1 to 158
0.398 to 3.16 | Cc1cccc(-c2n[nH]cc2-c2ccc3nccc(N4CCC(N5CCN(C)CC5)CC4)c3n2)n1 [Compound 845, 8-[4-(4-methylpiperazin-1-yl)-1-piperidyl]-2-[3-(6-methyl-2-pyridyl)-1H-pyrazol-4-yl]-1,5-naphthyridine] | 200 to 1260
0.0398 to 0.316 | Cc1cccc(-c2[nH]cnc2-c2ccc3ncc(-c4ccc(C(=O)O[C@H]5CCNC5)nc4)cc3c2)n1 [Compound 1122, [(3S)-pyrrolidin-3-yl] 5-[6-[5-(6-methyl-2-pyridyl)-1H-imidazol-4-yl]-3-quinolyl]pyridine-2-carboxylate] | 200 to 1260
< 0.0316 | Cc1cccc(-c2[nH]cnc2-c2ccc3ncc(-c4ccc(C(=O)OC5CCNCC5)cn4)cc3c2)n1 [Compound 1094, 4-piperidyl 6-[6-[5-(6-methyl-2-pyridyl)-1H-imidazol-4-yl]-3-quinolyl]pyridine-3-carboxylate] | 25.1 to 158
0.0398 to 0.316 | Cc1cccc(-c2[nH]cnc2-c2ccc3ncc(C(=O)O[C@H]4CCCNC4)cc3c2)n1 [Compound 878, (S)-piperidin-3-yl 6-(5-(6-methylpyridin-2-yl)-1H-imidazol-4-yl)quinoline-3-carboxylate] | 25.1 to 158
0.0398 to 0.316 | Cc1cccc(-c2[nH]cnc2-c2ccc3ncc(-c4cnc(C(=O)O[C@@H]5CCNC5)nc4)cc3c2)n1 [Compound 1059, [(3R)-pyrrolidin-3-yl] 5-[6-[5-(6-methyl-2-pyridyl)-1H-imidazol-4-yl]-3-quinolyl]pyrimidine-2-carboxylate] | 200 to 1260
0.0398 to 0.316 | Cc1cccc(-c2[nH]ncc2-c2ccc3ncc(C(=O)O[C@H]4C[C@H](N)C4)cc3c2)n1 [Compound 1181, (3-aminocyclobutyl) 6-[5-(6-methyl-2-pyridyl)-1H-pyrazol-4-yl]quinoline-3-carboxylate] | < 20
3.98 to 31.6 | Cc1cccc(-c2[nH]ncc2-c2ccc3nccc(C(=O)O[C@H]4CC[C@@](C)(N)CC4)c3c2)n1 [Compound 1155, (4-amino-4-methyl-cyclohexyl) 6-[5-(6-methyl-2-pyridyl)-1H-pyrazol-4-yl]quinoline-4-carboxylate] | 200 to 1260
0.0398 to 0.316 | Cc1cccc(-c2[nH]cnc2-c2ccc3ncc(-c4nc(C(=O)OCCN5CC[C@@H](N)C5)cs4)cc3c2)n1 [Compound 1246, 2-[(3R)-3-aminopyrrolidin-1-yl]ethyl 2-[6-[5-(6-methyl-2-pyridyl)-1H-imidazol-4-yl]-3-quinolyl]thiazole-4-carboxylate] | 200 to 1260
0.0398 to 0.316 | Cc1cccc(-c2[nH]cnc2-c2ccc3ncc(-c4cccc(C(=O)O[C@H]5CCNC5)c4)cc3c2)n1 [Compound 707, [(3S)-pyrrolidin-3-yl] 3-[6-[5-(6-methyl-2-pyridyl)-1H-imidazol-4-yl]-3-quinolyl]benzoate] | 25.1 to 158
0.0398 to 0.316 | Cc1cccc(-c2n[nH]cc2-c2ccc3ncc(NCC4CNCCN4)cc3n2)n1 (centres unmarked) [Compound 269, 6-[3-(6-methyl-2-pyridyl)-1H-pyrazol-4-yl]-N-(piperazin-2-ylmethyl)-1,5-naphthyridin-3-amine] | 1580 to 10000
0.0398 to 0.316 | CNC(=O)c1cnc2ccc(-c3cn[nH]c3-c3cccc(C)n3)nc2c1 [Compound 675, N-methyl-6-[5-(6-methyl-2-pyridyl)-lH-pyrazol-4-yl]-1,5-naphthyridine-3-carboxamide] | 25.1 to 158
0.0398 to 0.316 | Cc1cccc(-c2[nH]cnc2-c2ccc3ncc(N4CCN(C)C(CC(=O)O[C@@H]5CCNC5)C4)cc3c2)n1 (stereo partly drawn) [Compound 344, [(3R)-pyrrolidin-3-yl]2-[1-methyl-4-[6-[5-(6-methyl-2-pyridyl)-1H-imidazol-4-yl]-3-quinolyl]piperazin-2-yl]acetate] | 200 to 1260
0.0398 to 0.316 | Cc1cccc(-c2n[nH]cc2-c2ccc3ncc(N4CCC(N5CCN(C)CC5)CC4)cc3c2)n1 [Compound 82, 3-(4-(4-Methylpiperazin-1-yl)piperidin-1-yl)-6-(3-(6-methylpyridin-2-yl)-1H-pyrazol-4-yl)quinoline] | 25.1 to 158

Compound | Ki [2] [nM] | IC50 [1] [nM]
CNC1CC2CCC(C1)N2c1cnc2ccc(-c3c[nH]nc3-c3cccc(C)n3)nc2c1 (centres unmarked) [Compound 248, N-methyl-8-[6-[3-(6-methyl-2-pyridyl)-1H-pyrazol-4-yl]-1,5-naphthyridin-3-yl]-8-azabicyclo[3.2.1]octan-3-amine] | 3.98 to 31.6 | 200 to 1260
